Square brackets hold non-standard residues; d marks the D form. Peptide text beside a SMILES is read from it. PEG24 = NCCOCCOCCOCCOCCOCCOCCOCCOCCOCCOCCOCCOCCOCCOCCOCCOCCOCCOCCOCCOCCOCCOCCOCCOCCC(=O)O; Sar = CNCC(=O)O
Tests used:
[1] = test system: complement activation in factor B-depleted human sera; type: biochemical
Experimental: Peptides were diluted to 0.77 mM in factor B-depleted human sera (Complement Technologies, Inc.) and incubated for 1 hour at 37° C. These peptides were then diluted with GVBS^++ to equal 2.5/s serum, of which 0.25 ml was combined with 0.4 ml of GVBS^++ and 0.1 ml of sensitized sheep red blood cells (RBCs) and again incubated for 1 hour at 37° C. The procedure was stopped by the addition of 4.0 ml of GVBS^−−, centrifuged for 5 minutes at 1,620×g, and the absorbance of the supernatants was read at 412 nm in a spectrophotometer. The percent lysis of each sample was standardized to that of the serum only control.
The final concentration of peptide in factor B-depleted serum was 0.77 mM. Each peptide was evaluated in triplicate and the mean values are reported. […] In the hemolytic assay, soluble peptides are standardized to water and insoluble peptides standardized to DMSO.
Polar Assortant peptides were serially diluted in undiluted factor B-depleted human sera (Complement Technologies, Inc.) and incubated for 1 hour at 37° C. Water, GVBS^++ and DMSO were included as controls. These peptides were then diluted with GVBS^++ to equal 2.5/s serum, of which 0.25 ml was combined with 0.4 ml of GVBS^++ and 0.1 ml of sensitized sheep red blood cells (RBCs) and again incubated for 1 hour at 37° C. The procedure was stopped by the addition of 4.0 ml of GVBS^−−, centrifuged for 5 minutes at 1,620×g, and the absorbance of the supernatants was read at 412 nm in a spectrophotometer. The percent lysis of each sample was standardized to that of the serum only control.
The final concentration of peptide in factor B-depleted serum was 0.77 mM. […] In the hemolytic assay, soluble peptides were standardized to water and insoluble peptides standardized to DMSO.
The final concentration of peptide in factor B-depleted serum was 0.77 mM. […] In the hemolytic assay, soluble peptides are standardized to water and insoluble peptides standardized to DMSO.

[2] = Solubility in water; type: physicochemical
[3] = Table 7, PEGylated and sarcosine/alanine substitution peptides
[4] = Table 5, sarcosine substitution peptides

SMILES | Hemolysis (%) [1] [%] | Solubility in water ([2]; Table 6, PEGylated PA peptides) | other results
CC[C@H](C)[C@H](N)C(=O)N[C@@H](C)C(=O)N[C@@H](CC(C)C)C(=O)N[C@H](C(=O)N[C@@H](CC(C)C)C(=O)N[C@@H](C)C(=O)N1CCC[C@H]1C(=O)N[C@H](C(=O)N[C@@H](CS)C(=O)N[C@@H](CS)C(=O)N[C@@H](CCC(N)=O)C(=O)N[C@@H](C)C(=O)N[C@@H](CCCNC(=N)N)C(=O)N[C@@H](C)C(=O)N[C@@H](C)C(=O)NCCOCCOCCOCCOCCOCCOCCOCCOCCOCCOCCOCCOCCOCCOCCOCCOCCOCCOCCOCCOCCOCCOCCOCCOCCC(=O)O)[C@@H](C)CC)[C@@H](C)CC [E6AE12A-dPEG24] (H-IALILAPICCQARAA[PEG24]-OH; N-terminus assumed) | 4.95 |  | Solubility in water [2, 3]: Yes
CC[C@H](C)[C@H](N)C(=O)N(C)CC(=O)N[C@@H](CC(C)C)C(=O)N[C@H](C(=O)N[C@@H](CC(C)C)C(=O)N[C@@H](CCC(=O)O)C(=O)N1CCC[C@H]1C(=O)N[C@H](C(=O)N[C@@H](CS)C(=O)N[C@@H](CS)C(=O)N[C@@H](CCC(N)=O)C(=O)N[C@@H](CCC(=O)O)C(=O)N[C@@H](CCCNC(=N)N)C(=O)N[C@@H](C)C(=O)N[C@@H](C)C(=O)O)[C@@H](C)CC)[C@@H](C)CC [PA-A2Sar] (H-I[Sar]LILEPICCQERAA-OH; N-terminus and C-terminus assumed) | 37.72 |  | Solubility in water [2, 4]: Yes
CC[C@H](C)[C@H](N)C(=O)N[C@@H](C)C(=O)N[C@@H](CC(C)C)C(=O)N[C@H](C(=O)N[C@@H](CC(C)C)C(=O)N[C@@H](CCC(=O)O)C(=O)N1CCC[C@H]1C(=O)N[C@H](C(=O)N[C@@H](CS)C(=O)N[C@@H](CS)C(=O)N[C@@H](CCC(N)=O)C(=O)N[C@@H](CCC(=O)O)C(=O)N[C@@H](CCCNC(=N)N)C(=O)N(C)CC(=O)N[C@@H](C)C(=O)NCCOCCOCCOCCOCCOCCOCCOCCOCCOCCOCCOCCOCCOCCOCCOCCOCCOCCOCCOCCOCCOCCOCCOCCOCCC(=O)O)[C@@H](C)CC)[C@@H](C)CC [PA-A14Sar-dPEG24] | 3.68 |  | Solubility in water [2, 3]: Yes
CC[C@H](C)[C@H](N)C(=O)N[C@@H](C)C(=O)N[C@@H](CC(C)C)C(=O)N[C@H](C(=O)N[C@@H](CC(C)C)C(=O)N[C@@H](CCC(=O)O)C(=O)N1CCC[C@H]1C(=O)N[C@H](C(=O)N[C@@H](CS)C(=O)N[C@@H](CS)C(=O)N[C@@H](CCC(N)=O)C(=O)N[C@@H](CCC(=O)O)C(=O)N[C@@H](CCCNC(=N)N)C(=O)N(C)CC(=O)N[C@@H](C)C(=O)O)[C@@H](C)CC)[C@@H](C)CC [PA-A14Sar] | 3.88 |  | Solubility in water [2, 4]: No
CC[C@H](C)[C@H](N)C(=O)N[C@@H](C)C(=O)N[C@@H](CC(C)C)C(=O)N[C@H](C(=O)N[C@@H](CC(C)C)C(=O)N[C@@H](CCC(=O)O)C(=O)N1CCC[C@H]1C(=O)N[C@H](C(=O)N[C@@H](CS)C(=O)N[C@@H](CS)C(=O)N[C@@H](CCC(N)=O)C(=O)N[C@@H](CCC(=O)O)C(=O)N[C@@H](CCCNC(=N)N)C(=O)N[C@@H](C)C(=O)N[C@@H](C)C(=O)NCCOCCOCCC(=O)O)[C@@H](C)CC)[C@@H](C)CC [PA-dPEG02] |  | Yes | 
CC[C@H](C)[C@H](N)C(=O)N[C@@H](C)C(=O)N[C@@H](CC(C)C)C(=O)N[C@H](C(=O)N[C@@H](CC(C)C)C(=O)N[C@@H](CCC(=O)O)C(=O)N1CCC[C@H]1C(=O)N[C@H](C(=O)N[C@@H](CS)C(=O)N[C@@H](CS)C(=O)N[C@@H](CCC(N)=O)C(=O)N[C@@H](CCC(=O)O)C(=O)N[C@@H](CCCNC(=N)N)C(=O)N[C@@H](C)C(=O)N[C@@H](C)C(=O)NCCOCCOCCOCCC(=O)O)[C@@H](C)CC)[C@@H](C)CC [PA-dPEG03] |  | Yes | 
CC[C@H](C)[C@H](N)C(=O)N[C@@H](C)C(=O)N[C@@H](CC(C)C)C(=O)N[C@H](C(=O)N[C@@H](CC(C)C)C(=O)N[C@@H](CCC(=O)O)C(=O)N1CCC[C@H]1C(=O)N[C@H](C(=O)N[C@@H](CS)C(=O)N[C@@H](CS)C(=O)N[C@@H](CCC(N)=O)C(=O)N[C@@H](CCC(=O)O)C(=O)N[C@@H](CCCNC(=N)N)C(=O)N[C@@H](C)C(=O)N[C@@H](C)C(=O)NCCOCCOCCOCCOCCC(=O)O)[C@@H](C)CC)[C@@H](C)CC [PA-dPEG04] |  | Yes | 
CC[C@H](C)[C@H](N)C(=O)N[C@@H](C)C(=O)N[C@@H](CC(C)C)C(=O)N[C@H](C(=O)N[C@@H](CC(C)C)C(=O)N[C@@H](CCC(=O)O)C(=O)N1CCC[C@H]1C(=O)N[C@H](C(=O)N[C@@H](CS)C(=O)N[C@@H](CS)C(=O)N[C@@H](CCC(N)=O)C(=O)N[C@@H](CCC(=O)O)C(=O)N[C@@H](CCCNC(=N)N)C(=O)N[C@@H](C)C(=O)N[C@@H](C)C(=O)NCCOCCOCCOCCOCCOCCOCCC(=O)O)[C@@H](C)CC)[C@@H](C)CC [PA-dPEG06] |  | No | 
CC[C@H](C)[C@H](N)C(=O)N[C@@H](C)C(=O)N[C@@H](CC(C)C)C(=O)N[C@H](C(=O)N[C@@H](CC(C)C)C(=O)N[C@@H](CCC(=O)O)C(=O)N1CCC[C@H]1C(=O)N[C@H](C(=O)N[C@@H](CS)C(=O)N[C@@H](CS)C(=O)N[C@@H](CCC(N)=O)C(=O)N[C@@H](CCC(=O)O)C(=O)N[C@@H](CCCNC(=N)N)C(=O)N[C@@H](C)C(=O)N[C@@H](C)C(=O)NCCOCCOCCOCCOCCOCCOCCOCCOCCC(=O)O)[C@@H](C)CC)[C@@H](C)CC [PA-dPEG08] |  | Yes | 
CC[C@H](C)[C@H](N)C(=O)N[C@@H](C)C(=O)N[C@@H](CC(C)C)C(=O)N[C@H](C(=O)N[C@@H](CC(C)C)C(=O)N[C@@H](CCC(=O)O)C(=O)N1CCC[C@H]1C(=O)N[C@H](C(=O)N[C@@H](CS)C(=O)N[C@@H](CS)C(=O)N[C@@H](CCC(N)=O)C(=O)N[C@@H](CCC(=O)O)C(=O)N[C@@H](CCCNC(=N)N)C(=O)N[C@@H](C)C(=O)N[C@@H](C)C(=O)NCCOCCOCCOCCOCCOCCOCCOCCOCCOCCOCCOCCOCCC(=O)O)[C@@H](C)CC)[C@@H](C)CC [PA-dPEG12] |  | Yes | 
CC[C@H](C)[C@H](N)C(=O)N[C@@H](C)C(=O)N[C@@H](CC(C)C)C(=O)N[C@H](C(=O)N[C@@H](CC(C)C)C(=O)N[C@@H](CCC(=O)O)C(=O)N1CCC[C@H]1C(=O)N[C@H](C(=O)N[C@@H](CS)C(=O)N[C@@H](CS)C(=O)N[C@@H](CCC(N)=O)C(=O)N[C@@H](CCC(=O)O)C(=O)N[C@@H](CCCNC(=N)N)C(=O)N[C@@H](C)C(=O)N[C@@H](C)C(=O)NCCOCCOCCOCCOCCOCCOCCOCCOCCOCCOCCOCCOCCOCCOCCOCCOCCC(=O)O)[C@@H](C)CC)[C@@H](C)CC [PA-dPEG16] |  | Yes | 
CC[C@H](C)[C@H](N)C(=O)N[C@@H](C)C(=O)N[C@@H](CC(C)C)C(=O)N[C@H](C(=O)N[C@@H](CC(C)C)C(=O)N[C@@H](CCC(=O)O)C(=O)N1CCC[C@H]1C(=O)N[C@H](C(=O)N[C@@H](CS)C(=O)N[C@@H](CS)C(=O)N[C@@H](CCC(N)=O)C(=O)N[C@@H](CCC(=O)O)C(=O)N[C@@H](CCCNC(=N)N)C(=O)N[C@@H](C)C(=O)N[C@@H](C)C(=O)NCCOCCOCCOCCOCCOCCOCCOCCOCCOCCOCCOCCOCCOCCOCCOCCOCCOCCOCCOCCOCCC(=O)O)[C@@H](C)CC)[C@@H](C)CC [PA-dPEG20] |  | Yes | 
CC[C@H](C)[C@H](N)C(=O)N[C@@H](C)C(=O)N[C@@H](CC(C)C)C(=O)N[C@H](C(=O)N[C@@H](CC(C)C)C(=O)N[C@@H](CCC(=O)O)C(=O)N1CCC[C@H]1C(=O)N[C@H](C(=O)N[C@@H](CS)C(=O)N[C@@H](CS)C(=O)N[C@@H](CCC(N)=O)C(=O)N[C@@H](CCC(=O)O)C(=O)N[C@@H](CCCNC(=N)N)C(=O)N[C@@H](C)C(=O)N[C@@H](C)C(=O)O)[C@@H](C)CC)[C@@H](C)CC [PA] |  |  | solubility in water / aqueous solutions [2]: low solubility; Solubility in water [2, 4]: No
